Data reported in paper PMC10747602, “Dose Response, Dosimetric, and Metabolic Evaluations of Replacement PFAS Perfluoro-(2,5,8-trimethyl-3,6,9-trioxadodecanoic) Acid (HFPO-TeA)” (Toxics, 2023).

Assays:
Sprague Dawley rats = experiment: Mortality in five-day oral gavage exposure; LD50 calculation (BMDS 3.3.2); settings: for LD50 estimate (lower and upper 95% bounds): oral gavage, BMDS 3.3.2 multistage 3 model
Experimental: Male and female rats (n = 4/sex, dose, and time point) were dosed by gavage (5 mL/kg bodyweight) once daily for five days with water (vehicle control) or HFPO-TeA at eight half-log dose levels ranging from 0.3 to 335.2 mg/kg/day (i.e., 0.3, 0.9, 2.3, 6.3, 17, 45.9, 124, and 335.2). The results reported here are part of a larger study, for which the main purpose was to use benchmark dose–response modeling of transcriptomic data to identify a gene set basis for the point of departure (POD).
Clinical observations were performed prior to first administration and at termination. Moribundity and mortality were assessed twice daily on weekdays and once daily on weekends. Animals found moribund were euthanized by carbon dioxide inhalation and death was confirmed by cervical dislocation.
The mortality incident data were analyzed using BMDS 3.3.2, with the dichotomous model selected as the model type. The Benchmark Response was set at 0.5 extra risk. LD50 estimates were based on the model with the lowest Akaike information criterion (AIC).

[1] = tested on: Thyroid hormones T3, rT3, and T4; experiment: Plasma thyroid hormone assessment; type: in vivo, Sprague Dawley rats; settings: 5 days
Experimental: Information on the chemicals used in the plasma thyroid hormone analysis can be found in Supplementary Text S2 and Table S3. Thyroid hormones T3, rT3, and T4 were extracted from 20 µL of plasma (5 days) following the procedure outlined by O’Shaughnessy et al.. Briefly, plasma was spiked with internal standards ^13C6-T3, ^13C6-rT3, and ^13C6-T4, and extracted using Evolute CX SPE plates (10 mg, 1 mL, Biotage, Charlotte, NC, USA). Extracts were eluted using a positive pressure manifold. Refer to Supplementary Text S2 for complete details of the extraction method.
Targeted, quantitative analysis of the thyroid hormone levels was conducted using a 6500+ QTRAP liquid chromatography/mass spectrometer system (Sciex, Framingham, MA, USA) operated in positive ion multiple reaction monitoring (MRM) scan mode with electrospray ionization (ESI). […] Gradient elution was obtained using eluent A (0.1% formic acid; FA (aqueous)) and eluent B (MeOH with 0.1% FA). The gradient used is found in Table S4. Additional instrument parameters can be found in Table S5 and monitored transitions in Table S6. Statistical analysis is described in Supplementary Text S3. […]
Support ing Text S1: Chemicals
Chemicals used for solvent and mobile phases include methanol (MeOH), water (H2O), and acetonitrile (ACN) which were LC/MS grade and purchased from Honeywell Burdick & Jackson (Charlotte, NC, USA). Ethanol (EtOH) used as a solvent was ACS grade and purchased from Honeywell Burdick & Jackson. Ammonium formate (BioUltra purity) and ammonium acetate (99% pure) were used as mobile phase additives and obtained from Millipore Sigma (St. Louis, MO, USA). Formic acid (FA; 97.5% pure) was also used as an additive; it was purchased from Honeywell Fluka (Charlotte, NC, USA).
Detailed information for chemicals used for each analysis may be found in Table S1.
Support ing Text S2: Thyroid Hormone Chemicals and Analysis
3,3’,5-Triiodothyronine (Chemical Abstract Service Registry Number (CASRN) 6893-02-3 | U.S.
Environmental Protection Agency (U.S. EPA) Distributed Structure-Searchable Toxicity (DSSTox) substance identifier (DTXSID) DTXSID8023216 | T3; ˃ 99% pure), mass-labeled 3,3’,5-triiodothyronine […]
98% pure), mass-labeled 3,3’,5’-triiodothyronine hydrochloride (13C6-rT3; ˃ 99% pure), L-thyroxine […]
pure) were purchased from Cerilliant Corporation (Round Rock, Texas, USA).
Briefly, a 20 µL aliquot of plasma from each sample was loaded into individual wells of a 96-well collection plate. They were spiked with 5 µL of a 40 ng/mL 13C6-T3, 13C6-rT3 and 13C6-T4 mixed solution followed by 1N hydrochloric acid (HCl) (20 µL) (36.5-38%, Fisher Scientific. Waltham, MA, USA), H2O (100 µL), and a 50:50 H2O/ACN solution (vol/vol) (60 µL) containing 0.1% formic acid (FA). Samples were vortexed, incubated at 37 °C for 2 hours, and brought to room temperature. They were diluted with an aqueous 0.1% acetic acid solution (LC/MS grade, Honeywell Fluka) and vortexed. The SPE well plates (Evolute CX, 96-well SPE plate, 10 mg, 1 mL, Biotage, Charlotte, NC, USA), processed with a positive pressure manifold, were conditioned with methanol followed by an aqueous 0.1% acetic acid solution prior to sample loading with low pressure. Plate wells were washed with 0.1% acetic acid followed by methanol. Thyroid hormones were eluted into a collection plate with 2.5% ammonium hydroxide (NH4OH) (28-30%, Thermo Fisher Scientific, Waltham, MA, USA) in methanol. Extracts were then evaporated to dryness with nitrogen using a Turbovap (Biotage) then reconstituted in 100 µL of 25:75 ACN/H2O (vol/vol) with 0.1% acetic acid. Extracts were stored in amber micro-sampling vials (Agilent Technologies, Santa Clara, CA, USA) prior to instrumental analysis.
Samples were quantitated against matrix-matched calibration curves containing a minimum of 5 points spanning the range 0.005 – 25.00 ng/mL. Calibration standards were made by combining T3, rT3, and T4 analytes with the 13C6-T3, 13C6-rT3, and 13C6-T4 internal standards then with commercial rat […]

rats = tested on: rats; design: method as in PMID 28962433, PMID 30920876; settings: exposures up to 500 mg/kg/day; cited from earlier work

SMILES: O=C(O)C(F)(OC(F)(F)C(F)(OC(F)(F)C(F)(OC(F)(F)C(F)(F)C(F)(F)F)C(F)(F)F)C(F)(F)F)C(F)(F)F (centres unmarked) [HFPO-TeA, perfluoro-(2,5,8-trimethyl-3,6,9-trioxadodecanoic) acid]
- LD50 estimate (lower and upper 95% bounds) (Sprague Dawley rats; females): 28.23 (18.69 and 41.57) mg/kg/day
- premature death (Sprague Dawley rats; male and female rats, 45.9, 124, and 335.2 mg/kg/day dose groups): Premature death occurred
- doses at which mortality was observed (Sprague Dawley rats; male and female rats, oral gavage five days): > 17 mg/kg/day
- LD50 estimate (lower and upper 95% bounds) (Sprague Dawley rats; males): 37.77 (26.09 and 59.96) mg/kg/day
- rT3 Conc. in plasma ([1]; 0.3 mg/kg/day, F, individual rats, LOQ 0.005 ng/mL): < LOQ
- rT3 Conc. in plasma ([1]; 0.3 mg/kg/day, M, individual rats, LOQ 0.005 ng/mL): < LOQ
- rT3 Conc. in plasma ([1]; 0.9 mg/kg/day, F, individual rats, LOQ 0.005 ng/mL): < LOQ
- rT3 Conc. in plasma ([1]; 0.9 mg/kg/day, F, mean ± SD of replicates above LOQ (0.005 ng/mL)): <LOQ
- rT3 Conc. in plasma ([1]; 0.9 mg/kg/day, M, individual rats, LOQ 0.005 ng/mL): < LOQ
- rT3 Conc. in plasma ([1]; 0.9 mg/kg/day, M, mean ± SD of replicates above LOQ (0.005 ng/mL)): < LOQ
- rT3 Conc. in plasma ([1]; 2.3 mg/kg/day, F, individual rats, LOQ 0.005 ng/mL): < LOQ
- rT3 Conc. in plasma ([1]; 2.3 mg/kg/day, M, individual rats, LOQ 0.005 ng/mL): < LOQ
- rT3 Conc. in plasma ([1]; 6.3 mg/kg/day, F, individual rats, LOQ 0.005 ng/mL): < LOQ
- rT3 Conc. in plasma ([1]; 6.3 mg/kg/day, M, individual rats, LOQ 0.005 ng/mL): < LOQ
- rT3 Conc. in plasma ([1]; 17 mg/kg/day, F, individual rats, LOQ 0.005 ng/mL): < LOQ
- rT3 Conc. in plasma ([1]; 17 mg/kg/day, M, individual rats, LOQ 0.005 ng/mL): < LOQ

SMILES: O=C(O)C(F)(OC(F)(F)C(F)(F)C(F)(F)F)C(F)(F)F (centres unmarked) [HFPO-DA, perfluoro-2-methyl-3-oxahexanoic acid]
- premature mortality (rats): no reported premature mortality
